“Also recorded” adds a separate entry of the source.
Assays:
normoglycemic rats [1] = test: Oral glucose tolerance test in normoglycemic rats (Examples 27, 28); format: in vivo, Male Wistar rats
Experimental: (§1) Male Wistar rats were utilized provided by Mato Grosso do Sul's Federal University's Biotherium. Until the experiments were carried out, the animals have had free access to feed and water. The room temperature was kept at 22±2° C. and the light/dark cycle was of 12 hours.
The glucose tolerance test is a reference method for the diagnosis of diabetes or glucose intolerance (5).
Distinct rat groups were orally treated, once a day, with 3-(carbohydrazyl-N′-phenylsubstituted)-1-benzosubstituted-β-carbolinic-3-carbohydrazide (compound 7a or ANIS-BZ) at doses: 0.5, 1 or 5 mg/kg or vehicle (control) for 3 days. Similarly, another rat group received metformin (reference drug used for lowering glucose serum levels) in a 300 mg/kg dose, orally, once a day for 3 days. The oral glucose tolerance test was carried out by administering of a glucose solution (2 g/kg body mass). Glycemia was determined at zero time (before oral administering) and at 60 minutes after the glucose overload.
Distinct groups of rats were treated orally, once a day, with N(-ethylamine)-1-benzosubstituted-β-carboline-3-carboxamide (compound 4a or ANIS-NH2) at doses: 0.5, 1 or 5 mg/kg, or vehicle for 3 days. Similarly, another group of rats received metformin in a 300 mg/kg dose orally for 3 days once a day. The oral glucose tolerance test was done under the administration of a glucose solution (2 g/kg body mass). Glycemia will be determined at the zero (before oral administration) time and 60 minutes after glucose overload.

SHR hypertensive rats [2] = test: Plasma cholesterol levels test in SHR hypertensive rats; format: in vivo, Male SHR
Experimental: (§2) Distinct rat groups were orally treated, once a day, with 5 mg/kg of compounds 4a or 5a or 6a during the first 4 days, 10 mg/kg during the next 4 days and 15 mg/kg until the end of the treatment period or vehicle (control) for the same days. Similarly, another rat group received metformin (MET) (reference drug used for lowering glucose serum levels) in a 300 mg/kg dose, orally, from day 1 to the end of the treatment. Plasma cholesterol levels were measured in triplicate 12 hours after drug administration by the cholesterol oxidase/peroxidase method (BioSystems S.A, Barcelona, Spain). Blood samples were obtained by femoral vein punction. This method was chosen because of its noninvasive character, enabling daily measurements with the same rats throughout the entire treatment.
(§3) Male SHR were provided by Charles River Laboratories (USA). Until the experiments were carried out, the animals have had free access to feed and water. The room temperature was kept at 22±2° C. and the light/dark cycle was of 12 hours. All procedures were submitted to the Animal Experimentation Ethics Committee.
as §2, with “metformin” for “metformin (MET)”, “Blood pressure was” for “Plasma cholesterol levels were”, “4” for “12”, “administration in warmed warmed, restrained, conscious rats” for “administration”, “tail-cuff” for “cholesterol oxidase/peroxidase”, “with a computerized oscillometric system recorder (Nyprem, Cibertec).” for “(BioSystems S.A, Barcelona, Spain). Blood samples were obtained by femoral vein punction.”

SHR hypertensive rats [3] = test: Plasma triglyceride levels test in SHR hypertensive rats; format: in vivo, Male SHR; details: 25 days of treatment (5-15 mg/Kg) oral
Experimental: as §3
as §2, with “of compound” for “of compounds”, “4a” for “4a or 5a or 6a”, “metformin” for “metformin (MET)”, “Plasma triglyceride” for “Plasma cholesterol”, “the glycerol phosphate” for “the cholesterol”

SHR hypertensive rats [4] = test: Blood glucose levels test in SHR hypertensive rats; format: in vivo, Male SHR
Experimental: as §3, with “The food was removed 12 h before glucose determination. The” for “The”
Distinct rat groups were orally treated, once a day, with 5 mg/kg of compound 4a during the first 4 days, 10 mg/kg during the next 4 days and 15 mg/kg until the end of the treatment period or vehicle (control) for the same days. Similarly, another rat group received metformin in a 300 mg/kg dose, orally, from day 1 to the end of the treatment. Blood glucose levels were measured in triplicate 12 hours after drug administration with the aid of a GLUCOCARD TM G meter, GT-1810. Results were compared with the effect of metformin […]. Blood samples were obtained by femoral vein punction. This method was chosen because of its noninvasive character, enabling daily measurements with the same rats throughout the entire treatment.

[5] = tested on: Drosophila melanogaster (Oregon-R strain); test: Toxicology study: larva-to-adult viability and development time; details: in vivo
From the text: The purpose of this study was to test and compare the potential toxic effects of compounds 5a, 6a and 7a on the larva-to-adult viability and development time in a Drosophila melanogaster (Oregon-R) flies. These studies have a relevant predictive role with the aim to anticipate possible adverse toxicological effects that may happen during preclinical studies with animal, preferably mammals. In addition, the data provided are highly quantitative.
Drosophila melanogaster (Oregon-R) flies were obtained by the University of the Balearic Islands (Spain). […] The larvae were seeded on standard food supplemented with the appropriate dose of compounds tested. Each compound was tested at 1, 10, 100, 1000 and 2000 μg/ml dissolved in standard food.
Fly adults were transferred from the serial transfer system to bottles with fresh food for 24 h. Adults 5 days old were placed on egg collecting devices (layers) containing a mixture of agar, water, acetic acid, and ethyl alcohol, with a drop of active yeast on it. Every 2 h., the layer glasses were changed, in this way, the eggs of a glass have similar age, with a maximum difference of 2 h. among them. The glasses of the layers were kept at 25° C. for at least 22 h. in Petri dishes until larvae hatched. Fifty larvae were picked with a lancet under a stereoscopic microscope and were seeded into 10×2 cm vials with 5 ml food. Vials were supplemented with 4a, 5a and 7a at 1, 10 and 100 μg/ml. As positive control we used cupric acetate (toxic) at 350 μg/ml.
The number of adult flies which emerged from each vial was counted daily until the exhaustion of the culture. The parameters studied were the larvae-to-adult viability (V) and development time.
Viability is expressed as V=NA/NL, where NL is the input number of larvae ([…] in our case) and NA the output number of adults emerging from these NL larvae. Development time was measured in days by the formula DT=ΣNidi/ΣNi where Ni is the number of flies emerging on the day di after the larvae were placed in the medium.
The data are expressed as the mean±SEM values from 3 independent experiments involving triplicate vials at the number of flies indicated.

female Swiss mice = test: Acute oral toxicology study in a mice model; format: in vivo; details: oral 2000 mg/kg single dose, observation for 14 days
Experimental: The experiments were conducted using female Swiss mice (20-30 g), housed under a 12-h light-dark cycle, with controlled humidity (60-80%), and temperature (22±1° C.). Food and water were freely available to the mice.
Female mice (n=6) were orally (2000 mg/kg) administered with a single dose of 4a, 5a, and 7a for the observation of acute signs of toxicity until 14 days. […] The observations comprised the behavior and manifestations of the toxic symptoms, and were carried out according to the Guidelines of the Organization for Economic Cooperation and Development (OECD, 2008).
All compounds were dissolved in sterile saline and were administered by oral gavage to mice based in the weight, for example 20 g received 20 μL.
The data are expressed as mean±S.E.M. of experiments. Statistical significance was determined through one-way analysis of variances (ANOVA), followed by either Newman-Keuls test. A p<0.05 was considered statistically significant. Graphs were drawn and statistical analysis was carried out using GraphPad Prism version 5.00 for Windows (GraphPad Software, San Diego, Calif., USA).

normoglycemic rats [6] = test: Oral glucose tolerance test in normoglycemic rats (Examples 36, 37); format: in vivo, Male Wistar rats; details: metformin 300 mg/kg orally daily
Experimental: as §1, with “rats (200-300 g)” for “rats”, “C. with controlled humidity (60-80%)” for “C.”
The glucose tolerance test was evaluated as described by Al-Awaki et al (6).
Rats were randomly divided into […] groups of four animals that were control group that received only a solution of saline, compound 23b group (10 mg/kg), compound 21a group (10 mg/kg) and metformin 300 mg/kg group. Respective treatments were made orally and daily for five days.
(§4) On day 1, 3, and 5, different groups of rats were fasted overnight (at least 12 h) prior to the test, but with given water ad libitum. The oral glucose tolerance test was carried out by administering of a glucose solution (2 g/kg body weight) according to Al-Awadi et al (6). Glycemia was determined in blood samples collected from the tail vein at −30 minutes (just before the administration of the oral extract) time 0 (prior to the glucose overload) and at 60 minutes after the glucose overload. Serum glucose concentrations were measured by the glucose oxidase method (7) using commercial kit (Accuchek-performa (Roche)) according to the manufacture's instructions.
as §1, with “rats (200-300 g)” for “rats”, “C. with controlled humidity (60-80%)” for “C.”, “hours. All procedures were submitted to the Animal Experimentation Ethics Committee.” for “hours.”
The compounds 21b, 23a and 23d were diluted firstly in 20 μl of ethanol and after in 980 μl de saline. Compounds 21e, 23e and 26b were dissolved in sterile saline and were administered by oral gavage to rats based in the weight, for example 200 g received 200 μL.
54 rats were randomly divided into […] groups of five-eight animals that were control group (n=8) that received only a solution of vehicle, compound 21b group (n=5) (10 mg/kg), compound 21e group (n=5) (10 mg/kg), compound 23e group (n=5) (10 mg/kg), compound 23a group (n=5) (10 mg/kg), compound 23d group (n=5) (10 mg/kg), compound 26b group (n=5) (10 mg/kg) and metformin (n=6) 300 mg/kg group. Respective treatments were made orally and daily for five days.
as §4, with “manufactures's” for “manufacture's”

SHR hypertensive rats [7] = test: Systolic blood pressure test in SHR hypertensive rats; format: in vivo, Male Spontaneously Hypertensive Rats (SHR); details: metformin 300 mg/kg oral
Experimental: as §3, with “Spontaneously Hypertensive Rats (SHR)” for “SHR”
as §2, with “Blood samples were obtained by femoral vein punction. This method was chosen because of its noninvasive character, enabling daily measurements with the same rats throughout the entire treatment.” left out
Distinct rat groups were orally treated, once a day, with 5 mg/kg of compounds 4a or 5a or 6a during the first 4 days, 10 mg/kg during the next 4 days and 15 mg/kg until the end of the treatment period or vehicle (control) for the same days. […] Blood pressure was measured in triplicate 4 hours after drug administration in warmed warmed, restrained, conscious rats by the tail-cuff method with a computerized oscillometric system recorder (Nyprem, Cibertec). […]

| Structure (SMILES) | glycemic levels of animals that received an oral glucose overload (normoglycemic rats [1]; after 3 days, 0.5 mg/kg oral once a day, vs control group) | glycemic levels of animals that received an oral glucose overload (normoglycemic rats [1]; after 3 days, 1 mg/kg oral once a day, vs control group) | glycemic levels of animals that received an oral glucose overload (normoglycemic rats [1]; after 3 days, 5 mg/kg oral once a day, vs control group, 5 mg/kg) | glycemic levels of animals that received an oral glucose overload (normoglycemic rats [1]; first day, 5 mg/kg oral, vs control group, 60 min after glucose 2 g/kg) | plasma cholesterol levels (SHR hypertensive rats [2]; 25 days of treatment (15 mg/Kg) oral, effect more pronounced for 5a and 7a) | plasma triglyceride levels (SHR hypertensive rats [3]) | blood glucose decrease compared to the vehicle-control group (SHR hypertensive rats [4]; doses from 5 to 15 mg/kg oral, treatment periods of 4-15 days) | larvae-to-adult viability and development time [5] | mortality or behavioral disorders (acute signs of toxicity) (female Swiss mice) | glycemic levels of animals that received an oral glucose overload (normoglycemic rats [1]; after 3 days, metformin 300 mg/kg oral once a day) | glycemic levels of animals that received an oral glucose overload (normoglycemic rats [1]; first day, metformin 300 mg/kg oral) | glucose levels in oral glucose tolerance test (normoglycemic rats [6]; fifth day) | glucose levels in oral glucose tolerance test (normoglycemic rats [6]; first day) | glucose levels in oral glucose tolerance test (normoglycemic rats [6]; third day) | inhibitory effect on systolic blood pressure (SHR hypertensive rats [7]) | plasma cholesterol levels (SHR hypertensive rats [2]; 25 days, Metformin 300 mg/Kg oral) | effect on blood glucose levels (SHR hypertensive rats [4]; Metformin 300 mg/kg for 23 days) |
| --- | --- | --- | --- | --- | --- | --- | --- | --- | --- | --- | --- | --- | --- | --- | --- | --- | --- |
| COc1ccc(-c2nc(C(=O)NCCN)cc3c2[nH]c2ccccc23)cc1 [Compound 4a, N(-ethylamine)-1-benzosubstituted-β-carboline-3-carboxamide] | only the 1 and 5 mg/kg doses reduced statistically significant the glycemic levels | reduced statistically significant the glycemic levels | reduces the glycemic levels; also recorded: reduced statistically significant the glycemic levels | reduces the glycemic levels | inhibition of plasma cholesterol levels | statistically significant (p<0.05), inhibition of plasma triglyceride levels | 5-7% | not affected | did not produce mortality or any behavioral disorders | – | – | – | – | – | – | – | – |
| CN(C)C(=N)N=C(N)N [metformin, reference compound] | – | – | – | – | – | – | – | – | – | induces reduction of glycemic levels | induces reduction of glycemic levels | reduced the glucose levels | significant reduction in glucose levels | induces reduction of glycemic levels; also recorded: significant reduction in glucose levels | This effect at 5-15 mg/kg is greater than that of metformin | inhibition of plasma cholesterol levels | slightly greater effect on blood glucose levels |

From patent US9440966B2, “Compounds for treatment of metabolic syndrome” (SJT MOLECULAR RESEARCH, S.L., priority 2011, dated 2016)
